{
  "source": "paper PMC10013835",
  "about": "(Proceedings of the National Academy of Sciences of the …, 2023)",
  "key": {"PXR LBD [1]": {"biological_target": "T1, PXR LBD (Homo sapiens, UniProt O75469)", "T1 sequence (O75469 146-433 limits assumed)": "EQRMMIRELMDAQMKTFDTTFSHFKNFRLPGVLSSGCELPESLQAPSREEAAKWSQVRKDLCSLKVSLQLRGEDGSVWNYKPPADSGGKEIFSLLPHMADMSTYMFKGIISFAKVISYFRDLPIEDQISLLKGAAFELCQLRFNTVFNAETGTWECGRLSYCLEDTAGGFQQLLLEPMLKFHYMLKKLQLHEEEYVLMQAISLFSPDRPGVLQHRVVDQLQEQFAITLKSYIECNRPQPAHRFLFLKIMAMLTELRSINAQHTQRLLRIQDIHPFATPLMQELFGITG"}, "PXR LBD [2]": {"biological_target": "T1, PXR LBD", "assay": "biochemical", "settings": "PXR LBD binding [IC50 ± SD (µM)]"}, "W299A mutant PXR": {"biological_target": "T2, W299A mutant PXR (Homo sapiens, UniProt O75469, W299A)", "T2 sequence (O75469 1-434 W299A)": "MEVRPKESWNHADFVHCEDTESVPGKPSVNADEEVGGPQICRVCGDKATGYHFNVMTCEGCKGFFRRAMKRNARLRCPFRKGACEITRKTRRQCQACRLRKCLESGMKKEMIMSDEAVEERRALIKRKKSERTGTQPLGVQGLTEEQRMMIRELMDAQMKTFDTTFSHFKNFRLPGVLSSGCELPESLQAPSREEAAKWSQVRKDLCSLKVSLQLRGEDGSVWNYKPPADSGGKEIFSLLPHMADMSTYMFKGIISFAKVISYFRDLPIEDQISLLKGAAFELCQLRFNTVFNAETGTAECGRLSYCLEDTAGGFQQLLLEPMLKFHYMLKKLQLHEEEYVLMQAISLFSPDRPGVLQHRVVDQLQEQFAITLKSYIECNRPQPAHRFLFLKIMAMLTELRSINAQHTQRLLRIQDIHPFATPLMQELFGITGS", "settings": "293T cells, 24 h, Fig. 6"}, "PXR": {"biological_target": "T3, PXR (Homo sapiens, UniProt O75469)", "T3 sequence (O75469 1-434)": "T2 sequence (O75469 1-434 W299A) with A299W", "format": "cell-based", "settings": "WT PXR-transfected 293T cells, 24 h, Fig. 5"}},
  "note": "Residue numbers refer to the chain shown, from its start. Where two headings read alike, the source gives them in different places.",
  "data": [
    {"molecule": "CO[C@H]1/C=C/O[C@@]2(C)Oc3c(C)c(O)c4c(c3C2=O)C2=NC3(CCN(CC(C)C)CC3)NC2=C(NC(=O)/C(C)=C\\C=C\\[C@H](C)[C@H](O)[C@@H](C)[C@@H](O)[C@@H](C)[C@H](OC(C)=O)[C@@H]1C)C4=O", "note": "[Rifabutin]", "values": [
      {"measurement": "Group (PXR LBD binding affinity group)", "setting": "PXR LBD [1]; human, pH 7.5", "result": 1},
      {"measurement": "IC50", "setting": "PXR LBD [2]", "result": "11.8 ± 4.4", "unit": "µM"},
      {"measurement": "reporter activity for W299A PXR versus WT, in words", "setting": "W299A mutant PXR", "result": "changed very little"}
    ]},
    {"molecule": "CO[C@H]1/C=C/O[C@@]2(C)Oc3c(C)c(O)c4c(O)c(c5c(nc6cc(C)ccn65)c4c3C2=O)NC(=O)/C(C)=C\\C=C\\[C@H](C)[C@H](O)[C@@H](C)[C@@H](O)[C@@H](C)[C@H](OC(C)=O)[C@@H]1C", "note": "[Rifaximin]", "values": [
      {"measurement": "FC, fold change, compound's IC50 divided by that of rifampicin", "setting": "PXR LBD [1]; PXR LBD binding, relative to rifampicin", "result": 4.2},
      {"measurement": "Group (PXR LBD binding affinity group)", "setting": "PXR LBD [1]; grouping relative to rifampicin affinity", "result": 1},
      {"measurement": "IC50", "setting": "PXR LBD [2]; TR-FRET, GST-PXR LBD, rifampicin analog series", "result": "11.4 ± 3.3", "unit": "µM"}
    ]},
    {"molecule": "CO[C@H]1/C=C/O[C@@]2(C)Oc3c(C)c(O)c4c(c3C2=O)C(=O)C=C(NC(=O)/C(C)=C\\C=C\\[C@H](C)[C@H](O)[C@@H](C)[C@@H](O)[C@@H](C)[C@H](OC(C)=O)[C@@H]1C)C4=O", "note": "[Rifamycin S]", "values": [
      {"measurement": "cellular PXR activity (luciferase reporter), in words", "setting": "PXR", "result": "marginally better than rifampicin"},
      {"measurement": "Group (PXR LBD binding affinity group)", "setting": "PXR LBD [1]; human, pH 7.5", "result": 2},
      {"measurement": "IC50", "setting": "PXR LBD [2]", "result": "0.054 ± 0.014", "unit": "µM"},
      {"measurement": "reporter activity for W299A PXR versus WT, in words", "setting": "W299A mutant PXR", "result": "nearly completely inactive"}
    ]},
    {"molecule": "CO[C@H]1/C=C/O[C@@]2(C)Oc3c(C)c(O)c4c(O)c(cc(O)c4c3C2=O)NC(=O)/C(C)=C\\C=C\\[C@H](C)[C@H](O)[C@@H](C)[C@@H](O)[C@@H](C)[C@H](OC(C)=O)[C@@H]1C", "note": "[Rifamycin]", "values": [
      {"measurement": "cellular PXR activity (luciferase reporter), in words", "setting": "PXR", "result": "marginally better than rifampicin"},
      {"measurement": "Group (PXR LBD binding affinity group)", "setting": "PXR LBD [1]; human, pH 7.5", "result": 2},
      {"measurement": "IC50", "setting": "PXR LBD [2]", "result": "0.067 ± 0.009", "unit": "µM"}
    ]}
  ]
}
